Experimental data taken from PubChem BioAssay (NCI).
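Protocol summary: plate cells (96-well), add compound at 5 concentrations, incubate 48 h, interpolate endpoints linearly. TGI denotes the concentration required for complete inhibition of growth.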

Legend:
Experiment in all cases: NCI anticancer screen, dose series, 48 h
[1] = test system: SF-539 CNS
[2] = test system: HOP-92 NSCLC
[3] = test system: COLO 205 colon
[4] = test system: IGROV1 ovarian
[5] = test system: MOLT-4 leukemia
[6] = test system: MCF7 breast
[7] = test system: OVCAR-3 ovarian
[8] = test system: SW-620 colon
[9] = test system: MDA-N
[10] = test system: PC-3 prostate
[11] = test system: MALME-3M melanoma
[12] = test system: SN12C renal
[13] = test system: MDA-MB-231 breast
[14] = test system: U251 CNS
[15] = test system: OVCAR-4 ovarian
[16] = test system: T-47D breast
[17] = test system: M14 melanoma
[18] = test system: A549 NSCLC
[19] = test system: UACC-62 melanoma
[20] = test system: UO-31 renal
[21] = test system: HS 578T breast
[22] = test system: NCI-H460 lung
[23] = test system: SR leukemia
[24] = test system: OVCAR-5 ovarian
[25] = test system: SK-MEL-5 melanoma
[26] = test system: NCI-H23 lung
[27] = test system: HCT-15 colon
[28] = test system: HOP-62 NSCLC
[29] = test system: HT29 colon
[30] = test system: NCI-H226 lung
[31] = test system: LOX IMVI melanoma
[32] = test system: SF-268 CNS
[33] = test system: SK-MEL-28 melanoma
[34] = test system: NCI-H522 lung
[35] = test system: SK-OV-3 ovarian
[36] = test system: CCRF-CEM leukemia
[37] = test system: SNB-19 CNS
[38] = test system: ACHN renal
[39] = test system: OVCAR-8 ovarian
[40] = test system: BT-549 breast
[41] = test system: HCT-116 colon
[42] = test system: KM12 colon
[43] = test system: SF-295 CNS
[44] = test system: HL-60(TB) leukemia
[45] = test system: A498 renal
[46] = test system: MDA-MB-435
[47] = test system: K-562 leukemia
[48] = test system: DU-145 prostate
[49] = test system: RXF 393 renal
[50] = test system: TK-10 renal
[51] = test system: SNB-75 CNS
[52] = test system: 786-0 renal
[53] = test system: EKVX NSCLC
[54] = test system: HCC-2998 colon
[55] = test system: RPMI-8226 leukemia
[56] = test system: NCI/ADR-RES ovarian
[57] = test system: SK-MEL-2 melanoma
[58] = test system: UACC-257 melanoma
[59] = test system: CAKI-1 renal

SMILES: O=C1Cc2c([nH]c3cc(Br)ccc23)-c2ccccc2N1
- TGI [1]: 37.3 µM
- TGI [2]: 88.3 µM
- TGI [3]: 93.8 µM
- TGI [4]: 99.7 µM
- TGI [5]: 40.9 µM
- TGI [6]: > 100 µM
- TGI [7]: 83.4 µM
- TGI [8]: 52.5 µM
- TGI [9]: > 100 µM
- TGI [10]: 44.3 µM
- TGI [11]: 48.1 µM
- TGI [12]: 76.4 µM
- TGI [13]: > 100 µM
- TGI [14]: 31.8 µM
- TGI [15]: 38.2 µM
- TGI [16]: 84.1 µM
- TGI [17]: 37.5 µM
- TGI [18]: 64.1 µM
- TGI [19]: 49.2 µM
- TGI [20]: 38.1 µM
- TGI [21]: 69.9 µM
- TGI [22]: 48.5 µM
- TGI [23]: > 100 µM
- TGI [24]: 52.7 µM
- TGI [25]: 38.9 µM
- TGI [26]: > 100 µM
- TGI [27]: 25.2 µM
- TGI [28]: 26 µM
- TGI [29]: 37.2 µM
- TGI [30]: 34.7 µM
- TGI [31]: 37 µM
- TGI [32]: 89.9 µM
- TGI [33]: > 100 µM
- TGI [34]: 52.7 µM
- TGI [35]: 58.8 µM
- TGI [36]: 20.2 µM
- TGI [37]: 58 µM
- TGI [38]: 64.7 µM
- TGI [39]: 73.9 µM
- TGI [40]: 46.9 µM
- TGI [41]: 15.9 µM
- TGI [42]: > 100 µM
- TGI [43]: 61.3 µM
- TGI [44]: > 100 µM
- TGI [45]: 49 µM
- TGI [46]: > 100 µM
- TGI [47]: > 100 µM
- TGI [48]: 79.7 µM
- TGI [49]: 12.2 µM
- TGI [50]: 87.3 µM
- TGI [51]: 44.9 µM
- TGI [52]: > 100 µM

SMILES: NC(N)=N/N=C/c1c(-c2ccc(Cl)cc2)nc2n1CCS2
- TGI [1]: 25 µM
- TGI [2]: 22.6 µM
- TGI [53]: 30.4 µM
- TGI [54]: 8.39 µM
- TGI [3]: 14.3 µM
- TGI [4]: 27.5 µM
- TGI [5]: 17.3 µM
- TGI [6]: 27.9 µM
- TGI [7]: 22.1 µM
- TGI [8]: 21 µM
- TGI [9]: 23.3 µM
- TGI [10]: 18.2 µM
- TGI [11]: 30.9 µM
- TGI [12]: 29.5 µM
- TGI [55]: 26.9 µM
- TGI [56]: 32.6 µM
- TGI [14]: 28.5 µM
- TGI [15]: 28.6 µM
- TGI [57]: 24.2 µM
- TGI [58]: 28 µM
- TGI [16]: 34.8 µM
- TGI [17]: 11.1 µM
- TGI [18]: 22.2 µM
- TGI [19]: 24.6 µM
- TGI [20]: 25.5 µM
- TGI [21]: 58.8 µM
- TGI [22]: 26.9 µM
- TGI [24]: 28.3 µM
- TGI [25]: 10.3 µM
- TGI [27]: 28.8 µM
- TGI [28]: 27.4 µM
- TGI [29]: 21.1 µM
- TGI [30]: 41 µM
- TGI [31]: 18 µM
- TGI [32]: 25.3 µM
- TGI [59]: 28 µM
- TGI [33]: 26.8 µM
- TGI [34]: 28.7 µM
- TGI [35]: 27 µM
- TGI [36]: 16.9 µM
- TGI [37]: 32.6 µM
- TGI [38]: 27 µM
- TGI [39]: 29.5 µM
- TGI [40]: 28 µM
- TGI [41]: 16.4 µM
- TGI [42]: 24.2 µM
- TGI [43]: 11.3 µM
- TGI [44]: > 100 µM
- TGI [45]: 26.4 µM
- TGI [46]: 25.6 µM
- TGI [47]: 20 µM
- TGI [48]: 25.5 µM
- TGI [49]: 24.5 µM
- TGI [50]: 29.4 µM
- TGI [51]: 26.2 µM
- TGI [52]: 17.1 µM
